In article PMC10622577, “Structural basis for stabilisation of the RAD51 nucleoprotein filament by BRCA2” (Nature Communications, 2023):

Key:
RAD51 D184A, D187A NPFs = assay: EMSA of TR2 titration on RAD51 D184A, D187A NPFs; type: binding, human
Description: To assess RAD51 nucleoprotein (NPF) formation, wild-type and mutant RAD51 proteins were incubated with DNA in buffer: 25 mM HEPES pH 7.5, 150 mM NaCl, 2 mM DTT, 2 mM ATP, 5 mM CaCl2 for 15 minutes at room temperature. For filament binding of the TR2 peptide or His6-MBP-TR2 protein, the RAD51 NPFs were incubated with TR2 for further 5 minutes at room temperature. For filament binding of BRC4, the BRC4 peptide was pre-mixed with RAD51 for 10 minutes at room temperature before addition of DNA. For experiments with mono-streptavidin (mSA)-capped DNA, mSA (Sigma) was added in 5× molar excess of biotin labels for 15 minutes at room temperature prior to the addition of RAD51. Concentrations are provided in figures and DNA sequences for each experiment are reported in Supplementary Table 1.
Before electrophoresis, samples were mixed with a 0.5:1 volume of 50% (w/v) sucrose solution and analysed on a pre-run 0.5% (w/v) agarose gel in 0.5× TB buffer at 35 V for 2.5 hours at 4 °C. DNA was visualised by excitation of the fluorescent tag or, in the case of unlabelled DNA, by SYBR Gold staining. Gels were imaged in a Typhoon FLA9000 by excitation at 473 nm for fluorescein-labelled DNA or SYBR Gold-stained gels, 532 nm excitation for Cy3-labelled DNA or 635 nm excitation for Cy5-labelled DNA.
Supplementary table 1. DNA oligos and peptides
Oligos Size (nt) Sequence (5’ – 3’)
D184A […] (forward),
D184A, D187A […] (forward),
EMSA, SPR, CryoEM (micrographs,
Panels C, D (ssDNA) 60 FAM-[…]
Panels C, D (dsDNA) 60 FAM-[…],
Panels E, F (ssDNA) 60 Biotin-[…]
Panels E, F (dsDNA) 60 Biotin-[…],
Supplementary figs. 3, 4 (ssDNA) 60 Biotin-[…]
Supplementary figs. 3, 4 (dsDNA) 60 Biotin-[…],
Panel A (ssDNA) 32 Cy5-[…]
Panel B (dsDNA) 50 […]-Cy3,
Panel B (ssDNA) 60 Biotin-[…]-
Panel B (dsDNA) 60 Biotin,
Panel C (ssDNA) 32 Biotin-[…]-Biotin
Panel C (dsDNA) 50 Biotin-[…]-Cy3,
Supplementary fig. 5A 50 […]-Cy3,
Supplementary fig. 5B (ssDNA) 32 Cy5-[…]-Biotin,
Supplementary fig. 5B (ssDNA) 32 Biotin-[…]-Biotin
Supplementary fig. 5B (dsDNA) 50 Biotin-[…],
Panels B, C, D (ssDNA) 60 FAM-[…]
Panels F, G (ssDNA) 60 […]

[1] = system: RAD51 NPFs on mSA-capped DNA; assay: cryo-electron micrographs, bundling of RAD51 NPFs on mSA-capped DNA; design: species or system human; settings: 1:0.5 molar ratio of TR2 peptide and mSA; ss- and dsDNA; two independent repeats
Source text: To understand the structural basis for the association of the BRCA2 C-terminus with the RAD51 nucleoprotein filament, we sought to determine the structure of a RAD51-DNA-TR2 filament by high-resolution cryo-electron microscopy (cryoEM). […] Individual filaments within a bundle appeared to be in translational register relative to each other as it was possible to obtain well-resolved 2D classes of filament pairs (Supplementary fig. 5A, Supplementary Table 1). Filament aggregation induced by TR2 complicated picking of individual filament particles and prevented structural determination by cryoEM. We therefore sought to develop a method to prepare RAD51 NPFs in the presence of TR2 peptide without causing filament bundling. We reasoned that bundling might be alleviated by capping the DNA substrate with a bulky tag, to prevent filament aggregation by steric interference. We therefore prepared ss- and dsDNA substrates with a biotin tag at either one end or both ends, that could be bound by monomeric streptavidin (mSA) (Supplementary Fig. 5B, Supplementary Table 1).
Fig. 2 BRCA2 TR2 induces bundling of RAD51 nucleoprotein filaments. A Cryo-electron micrographs of RAD51 NPFs formed on ssDNA and dsDNA in the presence of 1:0.5 molar ratio of TR2 peptide. Extensive NPF aggregation into bundles of aligned filaments is clearly visible (examples marked with dashed white boxes). Two independent repeats. […]

For “DDQKNCKKRRALDFLSRLPLPPPVSPICTFVSPAAQKAFQPPRSCGTKY [TR2, BRCA2 TR2 peptide spanning amino acids 3260 to 3308]”, the “residual TR2 binding” value (RAD51 D184A, D187A NPFs; EMSA Fig. 1C, authors' response to reviewers) was “retain a degree of binding”, the “reduction in TR2 binding, ssDNA versus dsDNA filaments” value (RAD51 D184A, D187A NPFs; EMSA, ssDNA compared with dsDNA) was “especially pronounced for filaments formed on ssDNA” and the “TR2 binding relative to wild-type” value (RAD51 D184A, D187A NPFs; ss- and dsDNA, 25 mM HEPES pH 7.5, 150 mM NaCl, 2 mM ATP, 5 mM CaCl2, TR2 5 min, room temperature, ssDNA performed twice, dsDNA once) was “reduction in TR2 binding proportional to the decrease in charge at RAD51’s acidic patch”. The “bundling of RAD51 NPFs on mSA-capped DNA” value [1] was “no bundling in the presence of TR2”.
